ChEMBL document CHEMBL4507268 (2021)

Tests used:
[1] = test system: Epidermal growth factor receptor (Homo sapiens), P00533 [G719C]; conditions: Compound concentration 1000.0 nM
[2] = target: Beta-2 adrenergic receptor (Homo sapiens) (UniProt P07550); conditions: Compound concentration 10.0 uM
[3] = target: Tyrosine-protein kinase Fes/Fps (Homo sapiens) (UniProt P07332); conditions: Compound concentration 1000.0 nM
[4] = target: Phosphatidylinositol 5-phosphate 4-kinase type-2 beta (Homo sapiens) (UniProt P78356); conditions: Compound concentration 1000.0 nM
[5] = target: Interferon-induced, double-stranded RNA-activated protein kinase (Homo sapiens) (UniProt P19525); conditions: Compound concentration 1000.0 nM
Sequence of Interferon-induced, double-stranded RNA-activated protein kinase (Homo sapiens) (P19525 whole entry): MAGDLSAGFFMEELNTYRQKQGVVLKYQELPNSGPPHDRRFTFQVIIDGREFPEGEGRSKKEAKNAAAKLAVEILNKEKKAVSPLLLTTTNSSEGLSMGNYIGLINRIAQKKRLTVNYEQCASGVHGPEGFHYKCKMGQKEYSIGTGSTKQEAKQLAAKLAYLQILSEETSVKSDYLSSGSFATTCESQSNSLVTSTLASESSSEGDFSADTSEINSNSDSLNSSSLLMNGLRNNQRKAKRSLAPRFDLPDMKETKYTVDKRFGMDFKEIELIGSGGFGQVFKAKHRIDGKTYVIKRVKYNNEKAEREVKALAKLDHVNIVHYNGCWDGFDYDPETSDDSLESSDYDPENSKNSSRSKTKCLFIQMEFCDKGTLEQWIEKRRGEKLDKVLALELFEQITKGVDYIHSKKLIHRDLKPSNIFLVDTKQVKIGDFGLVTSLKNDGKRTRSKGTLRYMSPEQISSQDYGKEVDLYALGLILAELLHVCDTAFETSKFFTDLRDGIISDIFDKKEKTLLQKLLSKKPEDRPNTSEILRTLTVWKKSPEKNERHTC

[6] = target: Tyrosine-protein kinase ABL1 (Homo sapiens) (UniProt P00519); conditions: Compound concentration 1000.0 nM
[7] = target: Hormonally up-regulated neu tumor-associated kinase (Homo sapiens) (UniProt P57058); conditions: Compound concentration 1000.0 nM
Sequence of Hormonally up-regulated neu tumor-associated kinase (Homo sapiens) (P57058 whole entry): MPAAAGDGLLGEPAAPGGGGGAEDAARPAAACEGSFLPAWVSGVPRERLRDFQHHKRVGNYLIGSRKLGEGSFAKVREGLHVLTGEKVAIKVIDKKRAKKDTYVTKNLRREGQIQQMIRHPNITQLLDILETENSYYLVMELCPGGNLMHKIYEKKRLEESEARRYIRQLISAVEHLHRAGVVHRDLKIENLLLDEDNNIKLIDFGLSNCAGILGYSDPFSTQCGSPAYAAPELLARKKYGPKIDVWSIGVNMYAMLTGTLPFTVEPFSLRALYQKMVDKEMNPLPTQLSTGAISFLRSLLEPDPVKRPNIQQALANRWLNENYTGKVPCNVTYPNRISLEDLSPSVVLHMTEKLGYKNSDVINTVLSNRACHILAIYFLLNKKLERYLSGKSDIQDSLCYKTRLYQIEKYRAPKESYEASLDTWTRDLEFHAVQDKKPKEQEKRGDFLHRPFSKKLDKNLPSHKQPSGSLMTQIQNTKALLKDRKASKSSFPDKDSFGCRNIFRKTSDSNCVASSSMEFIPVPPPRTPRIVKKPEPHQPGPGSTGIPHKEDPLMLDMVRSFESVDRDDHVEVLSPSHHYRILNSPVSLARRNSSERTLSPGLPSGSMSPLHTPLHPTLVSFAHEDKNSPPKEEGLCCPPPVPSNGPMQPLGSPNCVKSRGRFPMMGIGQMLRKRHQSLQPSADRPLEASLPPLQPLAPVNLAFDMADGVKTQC

[8] = target: Serine/threonine-protein kinase RIO2 (Homo sapiens) (UniProt Q9BVS4); conditions: Compound concentration 1000.0 nM
[9] = target: Dual specificity protein kinase CLK1 (Homo sapiens) (UniProt P49759); conditions: Compound concentration 1000.0 nM
Sequence of Dual specificity protein kinase CLK1 (Homo sapiens) (P49759 whole entry, looked up): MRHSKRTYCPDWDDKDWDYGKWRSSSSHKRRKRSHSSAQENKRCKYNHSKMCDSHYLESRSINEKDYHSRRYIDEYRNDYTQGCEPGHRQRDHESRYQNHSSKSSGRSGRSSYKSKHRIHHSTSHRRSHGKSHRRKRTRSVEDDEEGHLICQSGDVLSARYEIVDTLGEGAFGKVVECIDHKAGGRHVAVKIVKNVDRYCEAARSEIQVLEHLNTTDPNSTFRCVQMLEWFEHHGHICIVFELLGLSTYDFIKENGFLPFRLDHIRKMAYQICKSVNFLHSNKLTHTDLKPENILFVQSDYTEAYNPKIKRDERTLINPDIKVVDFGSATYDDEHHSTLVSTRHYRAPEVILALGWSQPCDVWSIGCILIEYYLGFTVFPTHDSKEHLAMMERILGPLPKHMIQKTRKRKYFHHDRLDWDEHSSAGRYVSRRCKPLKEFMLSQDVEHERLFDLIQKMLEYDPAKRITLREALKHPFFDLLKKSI

[10] = target: Ribosomal protein S6 kinase alpha-3 (Homo sapiens) (UniProt P51812); conditions: Compound concentration 1000.0 nM
[11] = test system: Proto-oncogene tyrosine-protein kinase receptor Ret (Homo sapiens), P07949 [V804M]; conditions: Compound concentration 1000.0 nM
[12] = target: Epithelial discoidin domain-containing receptor 1 (Homo sapiens) (UniProt Q08345); conditions: Compound concentration 1000.0 nM
[13] = target: Serine/threonine-protein kinase PknB (Mycobacterium tuberculosis) (UniProt P9WI81); conditions: Compound concentration 1000.0 nM
Sequence of Serine/threonine-protein kinase PknB (Mycobacterium tuberculosis) (P9WI81 whole entry): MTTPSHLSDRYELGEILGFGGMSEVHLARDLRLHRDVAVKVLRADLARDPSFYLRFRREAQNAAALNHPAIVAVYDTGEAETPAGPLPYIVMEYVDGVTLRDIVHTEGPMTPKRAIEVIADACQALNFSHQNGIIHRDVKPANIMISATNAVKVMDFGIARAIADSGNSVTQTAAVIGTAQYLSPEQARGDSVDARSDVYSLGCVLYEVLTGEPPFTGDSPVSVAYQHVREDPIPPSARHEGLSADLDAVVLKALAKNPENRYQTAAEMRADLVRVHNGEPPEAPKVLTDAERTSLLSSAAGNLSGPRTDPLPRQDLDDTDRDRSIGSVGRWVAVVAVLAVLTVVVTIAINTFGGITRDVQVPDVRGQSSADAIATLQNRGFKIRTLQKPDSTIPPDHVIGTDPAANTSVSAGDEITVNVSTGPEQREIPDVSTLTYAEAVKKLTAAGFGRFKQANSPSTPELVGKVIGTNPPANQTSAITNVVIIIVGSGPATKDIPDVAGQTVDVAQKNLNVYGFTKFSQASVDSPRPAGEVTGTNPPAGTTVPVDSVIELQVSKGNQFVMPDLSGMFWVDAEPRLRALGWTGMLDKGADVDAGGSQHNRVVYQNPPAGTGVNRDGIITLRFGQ

[14] = target: Calcium/calmodulin-dependent protein kinase type 1D (Homo sapiens) (UniProt Q8IU85); conditions: Compound concentration 1000.0 nM
Sequence of Calcium/calmodulin-dependent protein kinase type 1D (Homo sapiens) (Q8IU85 whole entry, looked up): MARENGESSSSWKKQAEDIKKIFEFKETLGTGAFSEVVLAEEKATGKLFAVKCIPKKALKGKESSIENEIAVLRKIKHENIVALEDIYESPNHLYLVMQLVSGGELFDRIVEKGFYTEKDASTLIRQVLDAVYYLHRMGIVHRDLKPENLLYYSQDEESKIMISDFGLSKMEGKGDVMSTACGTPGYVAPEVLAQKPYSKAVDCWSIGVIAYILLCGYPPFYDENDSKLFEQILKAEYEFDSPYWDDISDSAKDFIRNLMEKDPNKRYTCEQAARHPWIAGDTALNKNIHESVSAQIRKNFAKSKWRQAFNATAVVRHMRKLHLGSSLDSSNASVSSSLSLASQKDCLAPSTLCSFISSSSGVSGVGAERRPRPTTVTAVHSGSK

[15] = target: RAC-gamma serine/threonine-protein kinase (Homo sapiens) (UniProt Q9Y243); conditions: Compound concentration 1000.0 nM
Sequence of RAC-gamma serine/threonine-protein kinase (Homo sapiens) (Q9Y243 whole entry): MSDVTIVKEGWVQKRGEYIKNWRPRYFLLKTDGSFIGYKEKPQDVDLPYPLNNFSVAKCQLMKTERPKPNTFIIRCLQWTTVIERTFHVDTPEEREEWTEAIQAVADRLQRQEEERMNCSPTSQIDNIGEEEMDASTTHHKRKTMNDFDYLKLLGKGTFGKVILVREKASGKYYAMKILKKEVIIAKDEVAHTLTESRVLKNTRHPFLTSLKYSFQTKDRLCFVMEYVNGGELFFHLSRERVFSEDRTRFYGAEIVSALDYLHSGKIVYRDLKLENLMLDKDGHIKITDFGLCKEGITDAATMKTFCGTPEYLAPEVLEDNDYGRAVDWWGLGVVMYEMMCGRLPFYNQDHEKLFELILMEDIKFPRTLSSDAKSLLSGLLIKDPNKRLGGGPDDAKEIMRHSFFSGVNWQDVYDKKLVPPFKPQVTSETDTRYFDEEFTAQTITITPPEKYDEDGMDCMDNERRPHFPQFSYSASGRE

[16] = target: Tyrosine-protein kinase Lyn (Homo sapiens) (UniProt P07948); conditions: Compound concentration 1000.0 nM
Sequence of Tyrosine-protein kinase Lyn (Homo sapiens) (P07948 2-512 limits assumed): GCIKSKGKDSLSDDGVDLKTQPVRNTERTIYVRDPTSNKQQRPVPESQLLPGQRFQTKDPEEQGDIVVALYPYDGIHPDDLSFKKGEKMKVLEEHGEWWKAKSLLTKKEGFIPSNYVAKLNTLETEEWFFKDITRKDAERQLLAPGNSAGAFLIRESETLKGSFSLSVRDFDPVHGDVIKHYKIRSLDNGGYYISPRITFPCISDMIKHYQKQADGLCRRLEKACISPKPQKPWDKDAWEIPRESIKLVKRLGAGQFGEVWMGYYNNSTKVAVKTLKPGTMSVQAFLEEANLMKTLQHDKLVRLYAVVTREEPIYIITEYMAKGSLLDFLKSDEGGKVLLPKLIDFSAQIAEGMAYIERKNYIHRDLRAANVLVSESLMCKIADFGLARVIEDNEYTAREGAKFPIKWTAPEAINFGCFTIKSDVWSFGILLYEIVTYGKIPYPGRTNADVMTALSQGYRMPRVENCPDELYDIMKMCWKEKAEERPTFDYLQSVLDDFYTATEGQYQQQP

[17] = target: Serine/threonine-protein kinase RIO1 (Homo sapiens) (UniProt Q9BRS2); conditions: Compound concentration 1000.0 nM
[18] = target: T1, Serine/threonine-protein kinase Sgk3 (Homo sapiens) (UniProt Q96BR1); conditions: Compound concentration 1000.0 nM
T1 sequence (whole entry): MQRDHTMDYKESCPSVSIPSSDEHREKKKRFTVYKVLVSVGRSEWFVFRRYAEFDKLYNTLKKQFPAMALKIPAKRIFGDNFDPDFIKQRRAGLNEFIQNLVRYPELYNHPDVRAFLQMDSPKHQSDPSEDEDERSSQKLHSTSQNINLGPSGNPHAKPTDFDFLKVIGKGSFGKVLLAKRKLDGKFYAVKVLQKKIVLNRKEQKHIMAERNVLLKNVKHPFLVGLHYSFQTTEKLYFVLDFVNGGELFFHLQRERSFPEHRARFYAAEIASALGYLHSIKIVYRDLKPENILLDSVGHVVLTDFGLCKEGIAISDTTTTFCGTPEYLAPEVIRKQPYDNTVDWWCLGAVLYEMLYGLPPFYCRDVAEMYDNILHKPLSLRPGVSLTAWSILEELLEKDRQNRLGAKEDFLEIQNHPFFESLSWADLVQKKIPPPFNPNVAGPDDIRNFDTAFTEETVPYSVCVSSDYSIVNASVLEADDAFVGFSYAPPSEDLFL

[19] = target: Tyrosine-protein kinase JAK1 (Homo sapiens) (UniProt P23458); conditions: Compound concentration 1000.0 nM
[20] = target: Serine/threonine-protein kinase 32C (Homo sapiens) (UniProt Q86UX6); conditions: Compound concentration 1000.0 nM
Sequence of Serine/threonine-protein kinase 32C (Homo sapiens) (Q86UX6 whole entry): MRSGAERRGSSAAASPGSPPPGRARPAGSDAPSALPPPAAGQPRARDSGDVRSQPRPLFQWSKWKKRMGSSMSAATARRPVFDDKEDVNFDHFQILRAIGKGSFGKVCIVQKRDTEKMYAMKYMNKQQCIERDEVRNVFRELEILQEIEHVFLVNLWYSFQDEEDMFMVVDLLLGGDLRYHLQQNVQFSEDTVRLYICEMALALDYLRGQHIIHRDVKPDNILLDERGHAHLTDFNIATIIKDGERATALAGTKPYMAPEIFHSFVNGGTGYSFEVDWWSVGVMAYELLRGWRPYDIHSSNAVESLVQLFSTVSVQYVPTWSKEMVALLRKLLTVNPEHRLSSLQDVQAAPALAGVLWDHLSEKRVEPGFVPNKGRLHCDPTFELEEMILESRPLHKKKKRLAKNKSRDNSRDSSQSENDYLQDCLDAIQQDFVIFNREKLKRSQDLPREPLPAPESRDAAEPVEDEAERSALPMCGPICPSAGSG

[21] = target: Serine/threonine-protein kinase Nek5 (Homo sapiens) (UniProt Q6P3R8); conditions: Compound concentration 1000.0 nM
[22] = target: T2, Tyrosine-protein kinase JAK3 (Homo sapiens) (UniProt P52333); conditions: Compound concentration 1000.0 nM
T2 sequence (whole entry): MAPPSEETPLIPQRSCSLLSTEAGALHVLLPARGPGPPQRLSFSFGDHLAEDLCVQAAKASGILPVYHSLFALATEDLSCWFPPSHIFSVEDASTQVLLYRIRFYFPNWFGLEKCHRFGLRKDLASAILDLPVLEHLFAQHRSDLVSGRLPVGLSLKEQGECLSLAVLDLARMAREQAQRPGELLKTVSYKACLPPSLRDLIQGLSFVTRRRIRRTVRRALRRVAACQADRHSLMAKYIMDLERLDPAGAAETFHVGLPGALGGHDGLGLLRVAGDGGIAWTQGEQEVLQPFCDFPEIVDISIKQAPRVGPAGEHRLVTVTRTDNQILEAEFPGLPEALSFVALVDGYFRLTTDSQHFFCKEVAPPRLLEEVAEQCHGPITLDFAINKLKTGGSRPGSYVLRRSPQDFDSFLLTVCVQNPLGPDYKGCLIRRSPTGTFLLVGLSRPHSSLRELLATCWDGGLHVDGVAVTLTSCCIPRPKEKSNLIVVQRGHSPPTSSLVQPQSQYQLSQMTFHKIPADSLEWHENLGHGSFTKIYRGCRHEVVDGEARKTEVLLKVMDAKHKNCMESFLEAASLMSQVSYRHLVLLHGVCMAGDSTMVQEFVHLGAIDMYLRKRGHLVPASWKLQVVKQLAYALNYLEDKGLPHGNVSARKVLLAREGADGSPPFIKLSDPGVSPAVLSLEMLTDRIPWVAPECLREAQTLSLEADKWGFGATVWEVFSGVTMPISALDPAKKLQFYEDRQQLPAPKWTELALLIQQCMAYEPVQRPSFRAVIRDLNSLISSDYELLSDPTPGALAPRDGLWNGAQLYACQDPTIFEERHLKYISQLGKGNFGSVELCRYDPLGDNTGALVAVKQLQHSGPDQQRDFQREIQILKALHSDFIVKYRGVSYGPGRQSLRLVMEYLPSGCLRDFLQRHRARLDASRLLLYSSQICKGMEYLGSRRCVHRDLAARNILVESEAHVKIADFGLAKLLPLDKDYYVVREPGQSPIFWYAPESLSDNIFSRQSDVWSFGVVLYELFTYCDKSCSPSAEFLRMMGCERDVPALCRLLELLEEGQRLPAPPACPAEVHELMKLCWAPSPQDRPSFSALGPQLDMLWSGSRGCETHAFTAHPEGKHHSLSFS

[23] = target: G protein-coupled receptor kinase 4 (Homo sapiens) (UniProt P32298); conditions: Compound concentration 1000.0 nM

Sequence of Beta-2 adrenergic receptor (Homo sapiens) (P07550 whole entry, looked up): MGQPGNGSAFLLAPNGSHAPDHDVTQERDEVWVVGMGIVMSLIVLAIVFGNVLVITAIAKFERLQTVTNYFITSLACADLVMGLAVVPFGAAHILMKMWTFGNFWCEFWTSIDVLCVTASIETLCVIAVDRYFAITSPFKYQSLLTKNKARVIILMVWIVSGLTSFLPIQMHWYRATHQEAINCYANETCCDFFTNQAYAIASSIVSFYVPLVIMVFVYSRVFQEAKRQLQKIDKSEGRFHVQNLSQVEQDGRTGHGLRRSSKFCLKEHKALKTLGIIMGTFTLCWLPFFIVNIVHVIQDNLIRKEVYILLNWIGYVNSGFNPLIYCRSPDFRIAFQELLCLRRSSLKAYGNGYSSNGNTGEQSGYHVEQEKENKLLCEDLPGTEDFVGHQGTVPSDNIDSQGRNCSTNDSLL

Cc1nc(C2CCN(C(=O)c3ccc(OC(F)(F)F)cc3N)CC2)c2ncc(N3CCN(C)CC3)cc2n1 [BAY-693]
inactive: residual activity [1] 100% | inhibition [2] -5.65% | residual activity [3] 96% | residual activity [4] 78% | residual activity [5] 95% | residual activity [6] 92% | residual activity [7] 100% | residual activity [8] 100% | residual activity [9] 100% | residual activity [10] 82% | residual activity [11] 100% | residual activity [12] 100% | residual activity [13] 100% | residual activity [14] 100% | residual activity [15] 95% | residual activity [16] 100% | residual activity [17] 100% | residual activity [18] 93% | residual activity [19] 90% | residual activity [20] 100% | residual activity [21] 100% | residual activity [22] 100% | residual activity [23] 96%

CN1CCN(c2cnc3c(C4CCN(C(=O)c5ccc(OC(F)(F)F)cc5N)CC4)ncnc3c2)CC1 [BAY-885]
inactive: residual activity [1] 94% | inhibition [2] -4.21% | residual activity [3] 100% | residual activity [4] 79% | residual activity [5] 85% | residual activity [6] 91% | residual activity [7] 95% | residual activity [8] 100% | residual activity [9] 100% | residual activity [10] 80% | residual activity [11] 100% | residual activity [12] 100% | residual activity [13] 97% | residual activity [14] 100% | residual activity [15] 93% | residual activity [16] 75% | residual activity [17] 100% | residual activity [18] 100% | residual activity [19] 90% | residual activity [20] 100% | residual activity [21] 100% | residual activity [22] 100% | residual activity [23] 100%
